{"source": "paper PMC6941823", "about": "“A dispensable paralog of succinate dehydrogenase subunit C mediates standing resistance towards a subclass of SDHI fungicides in Zymoseptoria tritici” (PLoS Pathogens, 2019)", "key": {"[1]": {"target": "WT-SQR (SDHC), IPO323 mitochondria (Zymoseptoria tritici, UniProt F9X9V6+F9XH52+O42772)", "assay": "Succinate-quinone (SQR) SDHI sensitivity assay on purified mitochondria, IPO323", "assay_type": "biochemical", "outline": "(§1)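 Mitochondria purified from each strain were used for succinate:ubiquinone/DCPIP reductase assays, with suspensions adjusted to similar initial velocity (1 OD595nm hour^-1). Inhibitor was tested at 0.047 nM–50 μM in 4x steps (11 concentrations plus DMSO). IC50 came from non-linear fits of absorbance slopes (OD/min) against log concentration.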"}, "[2]": {"target": "SQR of 06STD024 (SDHC / altC) mitochondria (Zymoseptoria tritici, UniProt A0A1X7RQW2+F9X9V6+F9XH52+O42772)", "sequence (A0A1X7RQW2 36-181)": "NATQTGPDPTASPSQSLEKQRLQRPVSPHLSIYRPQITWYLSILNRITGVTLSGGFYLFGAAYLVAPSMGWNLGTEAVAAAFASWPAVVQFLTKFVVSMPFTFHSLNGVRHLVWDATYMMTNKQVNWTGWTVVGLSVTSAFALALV", "sequence (O42772 19-297)": "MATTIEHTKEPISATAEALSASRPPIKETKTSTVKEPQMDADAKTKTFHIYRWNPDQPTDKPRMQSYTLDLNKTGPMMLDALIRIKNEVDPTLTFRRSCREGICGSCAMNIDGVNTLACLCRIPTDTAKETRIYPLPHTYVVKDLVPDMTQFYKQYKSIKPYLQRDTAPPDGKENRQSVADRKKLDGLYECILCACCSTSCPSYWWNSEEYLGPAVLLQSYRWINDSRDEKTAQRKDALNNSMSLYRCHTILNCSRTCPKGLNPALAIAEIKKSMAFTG", "sequence (F9X9V6 1-193)": "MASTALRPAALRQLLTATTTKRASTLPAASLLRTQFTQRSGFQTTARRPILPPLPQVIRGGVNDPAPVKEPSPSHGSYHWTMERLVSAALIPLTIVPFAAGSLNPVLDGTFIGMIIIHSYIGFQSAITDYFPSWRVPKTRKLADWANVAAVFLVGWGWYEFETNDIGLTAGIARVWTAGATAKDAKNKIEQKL", "sequence (F9XH52 44-187)": "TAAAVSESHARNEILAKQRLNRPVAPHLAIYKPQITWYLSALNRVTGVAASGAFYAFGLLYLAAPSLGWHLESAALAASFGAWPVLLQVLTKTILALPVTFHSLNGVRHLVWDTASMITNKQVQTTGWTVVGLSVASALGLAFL", "sequence (F9WWR1 29-643 partner)": "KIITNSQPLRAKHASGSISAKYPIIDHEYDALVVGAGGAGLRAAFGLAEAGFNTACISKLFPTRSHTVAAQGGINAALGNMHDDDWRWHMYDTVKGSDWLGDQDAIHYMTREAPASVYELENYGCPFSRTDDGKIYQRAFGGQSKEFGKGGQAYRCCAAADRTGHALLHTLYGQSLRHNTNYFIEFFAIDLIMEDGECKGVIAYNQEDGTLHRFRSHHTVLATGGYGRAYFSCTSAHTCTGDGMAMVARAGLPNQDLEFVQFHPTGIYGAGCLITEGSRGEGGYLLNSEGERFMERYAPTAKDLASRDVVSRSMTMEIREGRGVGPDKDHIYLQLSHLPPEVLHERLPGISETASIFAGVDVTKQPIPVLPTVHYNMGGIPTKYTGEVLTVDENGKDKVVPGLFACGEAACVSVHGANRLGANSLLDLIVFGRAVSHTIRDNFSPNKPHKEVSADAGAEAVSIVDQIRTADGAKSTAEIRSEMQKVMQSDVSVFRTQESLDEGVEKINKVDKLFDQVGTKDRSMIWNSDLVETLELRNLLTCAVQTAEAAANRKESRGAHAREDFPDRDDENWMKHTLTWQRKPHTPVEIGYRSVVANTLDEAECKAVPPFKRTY", "assay": "Succinate-quinone (SQR) SDHI sensitivity assay on purified mitochondria, 06STD024", "assay_type": "biochemical", "outline": "(§2)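 Succinate:ubiquinone/DCPIP reductase inhibition measured on purified mitochondria from Zymoseptoria tritici strains carrying either a single C-subunit gene (ZtSDHC1, ZtSDHC1_A84I or ZtSDHC3) or both ZtSDHC1 and ZtSDHC3; pTet::SDHC3 transformant tested under repressed and induced conditions.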"}, "[3]": {"target": "SQR (SDHC) of D024 SDHC3 KO mitochondria (Zymoseptoria tritici, UniProt F9X9V6+F9XH52+O42772)", "sequence (F9XH52 44-187)": "as the sequence (F9XH52 44-187) above", "sequence (O42772 19-297)": "as the sequence (O42772 19-297) above", "sequence (F9X9V6 1-193)": "as the sequence (F9X9V6 1-193) above", "sequence (F9WWR1 29-643 partner)": "as the sequence (F9WWR1 29-643 partner) above", "assay": "Succinate-quinone (SQR) SDHI sensitivity assay on purified mitochondria, 06STD024 SDHC3 KO", "assay_type": "biochemical", "outline": "as §1"}, "[4]": {"system": "SQR (SDHC / altC) of IPO323 pTet::SDHC3 transformant, induced", "assay": "Succinate-quinone (SQR) SDHI sensitivity assay on purified mitochondria, IPO323 pTet::SDHC3 induced", "assay_type": "biochemical, Zymoseptoria tritici", "conditions": "IPO323 pTet::SDHC3 transformant grown in the absence of doxycycline; mean of three ± SD", "outline": "as §2"}, "[5]": {"target": "SQR (SDHC / altC) of IPO323 pTet::SDHC3 transformant, repressed (Zymoseptoria tritici, UniProt A0A1X7RQW2+F9X9V6+F9XH52+O42772)", "sequence (F9XH52 44-187)": "as the sequence (F9XH52 44-187) above", "sequence (O42772 20-297)": "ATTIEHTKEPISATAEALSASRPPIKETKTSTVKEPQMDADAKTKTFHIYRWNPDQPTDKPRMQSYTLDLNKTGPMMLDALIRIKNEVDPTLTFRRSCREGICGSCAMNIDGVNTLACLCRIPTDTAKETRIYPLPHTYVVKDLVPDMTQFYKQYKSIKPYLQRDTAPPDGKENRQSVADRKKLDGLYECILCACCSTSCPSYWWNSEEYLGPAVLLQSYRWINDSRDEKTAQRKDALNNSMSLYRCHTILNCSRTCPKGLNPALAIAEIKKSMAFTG", "sequence (F9X9V6 1-193)": "as the sequence (F9X9V6 1-193) above", "sequence (A0A1X7RQW2 36-181)": "as the sequence (A0A1X7RQW2 36-181) above", "sequence (F9WWR1 41-643 partner)": "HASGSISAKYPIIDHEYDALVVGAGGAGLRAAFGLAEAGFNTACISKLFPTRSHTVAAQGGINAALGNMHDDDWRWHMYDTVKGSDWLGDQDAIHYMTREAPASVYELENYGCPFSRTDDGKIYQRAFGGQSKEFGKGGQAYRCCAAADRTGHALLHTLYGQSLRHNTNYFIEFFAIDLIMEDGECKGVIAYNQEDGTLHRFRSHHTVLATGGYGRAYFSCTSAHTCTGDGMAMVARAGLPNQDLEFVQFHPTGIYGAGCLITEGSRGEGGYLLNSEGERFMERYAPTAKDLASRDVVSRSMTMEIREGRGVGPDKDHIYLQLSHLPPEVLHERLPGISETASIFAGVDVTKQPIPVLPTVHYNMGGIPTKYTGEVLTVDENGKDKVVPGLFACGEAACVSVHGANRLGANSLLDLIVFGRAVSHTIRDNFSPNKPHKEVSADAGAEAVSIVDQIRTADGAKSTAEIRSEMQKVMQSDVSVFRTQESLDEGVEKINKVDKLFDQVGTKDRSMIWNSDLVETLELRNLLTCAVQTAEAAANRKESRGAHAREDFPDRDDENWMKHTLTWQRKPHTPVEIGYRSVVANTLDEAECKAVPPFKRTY", "assay": "Succinate-quinone (SQR) SDHI sensitivity assay on purified mitochondria, IPO323 pTet::SDHC3 repressed", "assay_type": "biochemical", "outline": "as §2"}, "[6]": {"system": "Zymoseptoria tritici field and genetically modified strains", "assay": "Liquid culture assay for fungicide sensitivity determination", "assay_type": "cell-based", "conditions": "Zymoseptoria tritici", "outline": "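EC50s from liquid culture growth tests with field isolates and modified strains. Population monitoring used final concentrations 100 to 0.0001 mg.L^-1 in 10x steps (7 levels plus DMSO control); refined panel profiling used 0.5 mM to 0.47 nM in 4x steps (11 levels plus DMSO).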"}, "[7]": {"system": "Zymoseptoria tritici isolates", "assay": "Growth tests on solid agar at discriminatory fungicide concentrations", "assay_type": "cell-based", "conditions": "AE agar, fluopyram 5 mg.L^-1, 18 DPI (procedure of Fig 6)", "from_the_text": "Fig 6 Resistance to SHA-SDHIs in Z. tritici EU populations. […] Sensitivity data are sorted by genotype according to the presence of the ZtSDHC3 gene. ** p value of 0.0029 in Welch’s corrected unpaired t-test. (B) Solid agar growth of a collection of 93 Z. tritici isolates sampled in 2009 (same set as above). Individual strains from this collection are boxed and numbered 1 to 93. Boxes A and B correspond to reference resistant strains 06STD024 and 07STGB009 respectively. Box C corresponds to IPO323 reference sensitive isolate. The yellow framed boxes correspond to strains carrying the ZtSDHC3 gene. Yellow arrow designates strain 09STIR20.1 (number 78) carrying a non-functional alt-SDHC (frameshift, S6 Table).\nA large scale spotting assay of 96 isolates (Fig 6) was performed using the V&P 96 floating pin tool VP408FP6 (V&P Scientific), equipped with flat tip FP6 pins of 1.58 mm diameter (resulting in approx. 0.4 μl transfer volume). Source cultures for cell spotting were grown in 100 μl YPD liquid medium in a 96 well flat bottom plate (Corning, 3370) at 18°C for 11 days (average cell density of 3.5·10^6/ml), then diluted 1:2x in fresh YPD medium and incubated for another 1.5 h before transfer with the pin tool (approx. 700 cells per spot) onto AE agar with or without fungicide. Plates were incubated at 20°C in the dark for up to 18 days. Smaller scale spotting assays (Figs 4 and 8) were performed using 5 days V8-agar plates inoculums adjusted to 2.10^6 spores.mL^-1 in water and diluted in steps of 3. 2μL of spore suspension was spotted on the plates, and the plates were incubated shielded from light at 21°C for 6 days."}, "[8]": {"conditions": "IC50 ratio compared to IPO323 values"}}, "note": "Like-named read-outs stand apart in the source and are kept apart here.", "data": [{"smiles": "O=C(NCCc1ncc(C(F)(F)F)cc1Cl)c1ccccc1C(F)(F)F", "note": "[Fluopyram]", "values": [{"measurement": "IC50", "setting": "[1]", "result": "0.0125 ± 0.002", "unit": "µM"}, {"measurement": "RF (resistance factor), 06STD024 (SDHC / altC)", "setting": "[2]; [8]", "result": 111.3}, {"measurement": "IC50", "setting": "[2]; mitochondria of field isolate 06STD024, mean of three ± SD", "result": "1.39 ± 0.522", "unit": "µM"}, {"measurement": "RF (resistance factor), D024 SDHC3 KO (SDHC)", "setting": "[3]; [8]", "result": 0.8}, {"measurement": "IC50", "setting": "[3]; mitochondria of 06STD024 ZtSDHC3 deletion mutant, mean of three ± SD", "result": "0.0101 ± 0.002", "unit": "µM"}, {"measurement": "IC50", "setting": "[4]", "result": "0.547 ± 0.0688", "unit": "µM"}, {"measurement": "RF (resistance factor), pTet Repressed (SDHC / altC)", "setting": "[5]; [8]", "result": 1.8}, {"measurement": "IC50", "setting": "[5]; IPO323 pTet::SDHC3 transformant grown in presence of 30 mg.L^-1 doxycycline, mean of three ± SD", "result": "0.0219 ± 0.0077", "unit": "µM"}, {"measurement": "EC50", "setting": "[6]; read-out: EC50 (nM) Mean, strain 06STD024, liquid culture sensitivity", "result": 9360, "unit": "nM"}, {"measurement": "EC50", "setting": "[6]; read-out: EC50 (nM) Mean, strain 07STGB009, liquid culture sensitivity", "result": 10900, "unit": "nM"}, {"measurement": "EC50", "setting": "[6]; read-out: EC50 (nM) Mean, strain 09STD041, liquid culture sensitivity", "result": 1370, "unit": "nM"}, {"measurement": "EC50", "setting": "[6]; read-out: EC50 (nM) Mean, strain 09STD053, liquid culture sensitivity", "result": 558, "unit": "nM"}, {"measurement": "EC50", "setting": "[6]; read-out: EC50 (nM) Mean, strain 09STF011, liquid culture sensitivity", "result": 3570, "unit": "nM"}, {"measurement": "EC50", "setting": "[6]; read-out: EC50 (nM) Mean, strain 09STF037, liquid culture sensitivity", "result": 461, "unit": "nM"}, {"measurement": "EC50", "setting": "[6]; read-out: EC50 (nM) Mean, strain 09STF112, liquid culture sensitivity", "result": 2890, "unit": "nM"}, {"measurement": "EC50", "setting": "[6]; read-out: EC50 (nM) Mean, strain 09STIR20.3, liquid culture sensitivity", "result": 419, "unit": "nM"}, {"measurement": "EC50", "setting": "[6]; read-out: EC50 (nM) Mean, strain Flu21 (SDHC1_A84I), liquid culture sensitivity", "result": 4580, "unit": "nM"}, {"measurement": "EC50", "setting": "[6]; read-out: EC50 (nM) Mean, strain IPO323, liquid culture sensitivity", "result": 222, "unit": "nM"}, {"measurement": "EC50", "setting": "[6]; read-out: EC50 (nM) Mean, strain IPO94269, liquid culture sensitivity", "result": 147, "unit": "nM"}, {"measurement": "EC50", "setting": "[6]; read-out: EC50 (nM) Mean, strain KO_SDHC1_T1, liquid culture sensitivity", "result": 25600, "unit": "nM"}, {"measurement": "EC50", "setting": "[6]; read-out: EC50 (nM) Mean, strain KO_SDHC1_T3, liquid culture sensitivity", "result": 21200, "unit": "nM"}, {"measurement": "EC50", "setting": "[6]; read-out: EC50 (nM) Mean, strain KO_SDHC3_T4, liquid culture sensitivity", "result": 350, "unit": "nM"}, {"measurement": "EC50", "setting": "[6]; read-out: EC50 (nM) Mean, strain KO_SDHC3_T13, liquid culture sensitivity", "result": 351, "unit": "nM"}, {"measurement": "EC50", "setting": "[6]; read-out: EC50 (nM) Mean, strain pTet::SDHC3_I78A_T1, liquid culture sensitivity", "result": 354, "unit": "nM"}, {"measurement": "EC50", "setting": "[6]; read-out: EC50 (nM) Mean, strain pTet::SDHC3_I78A_T5, liquid culture sensitivity", "result": 818, "unit": "nM"}, {"measurement": "EC50", "setting": "[6]; read-out: EC50 (nM) Mean, strain pTet::SDHC3_I78A_T15, liquid culture sensitivity", "result": 552, "unit": "nM"}, {"measurement": "EC50", "setting": "[6]; read-out: EC50 (nM) Mean, strain pTet::SDHC3_I78A_T35, liquid culture sensitivity", "result": 143, "unit": "nM"}, {"measurement": "EC50", "setting": "[6]; read-out: EC50 (nM) Mean, strain pTet::SDHC3_T1, liquid culture sensitivity", "result": 16000, "unit": "nM"}, {"measurement": "EC50", "setting": "[6]; read-out: EC50 (nM) Mean, strain pTet::SDHC3_T2, liquid culture sensitivity", "result": 14300, "unit": "nM"}, {"measurement": "EC50", "setting": "[6]; read-out: EC50 (nM) Mean, strain pTet::SDHC3_T3, liquid culture sensitivity", "result": 6750, "unit": "nM"}, {"measurement": "EC50", "setting": "[6]; read-out: EC50 (nM) Mean, strain pTet::SDHC3_T7, liquid culture sensitivity", "result": 24500, "unit": "nM"}, {"measurement": "EC50", "setting": "[6]; read-out: Fluopyram EC50 in liquid culture, panel of ZtSDHC3 containing isolates, field isolates collected in 2009 carrying ZtSDHC3, from sensitive to resistant", "result": "0.3 to 3.2", "unit": "mg/L"}, {"measurement": "Growth phenotype on SDHI-amended plate", "setting": "[7]; strain 06STD024", "result": "Very strong"}, {"measurement": "Growth phenotype on SDHI-amended plate", "setting": "[7]; strain 07STGB009", "result": "Very strong"}, {"measurement": "Growth phenotype on SDHI-amended plate", "setting": "[7]; strain 09STD041", "result": "Weak"}, {"measurement": "Growth phenotype on SDHI-amended plate", "setting": "[7]; strain 09STD053", "result": "Weak"}, {"measurement": "Growth phenotype on SDHI-amended plate", "setting": "[7]; strain 09STF011", "result": "Moderate"}, {"measurement": "Growth phenotype on SDHI-amended plate", "setting": "[7]; strain 09STF037", "result": "Very weak"}, {"measurement": "Growth phenotype on SDHI-amended plate", "setting": "[7]; strain 09STF112", "result": "Strong"}, {"measurement": "Growth phenotype on SDHI-amended plate", "setting": "[7]; strain 09STIR20.3", "result": "Very weak"}, {"measurement": "Growth phenotype on SDHI-amended plate", "setting": "[7]; strain IPO323", "result": "No"}, {"measurement": "Growth phenotype on SDHI-amended plate", "setting": "[7]; strain IPO94269", "result": "No"}]}]}
